From PubChem BioAssay AID330 (DTP/NCI, 2004)
Several values for one entry are separate records, joined by “and”; a condition that tells them apart may be missing. Equal entries are not always repeated. Inconclusive results and toxic doses are left out. Square brackets hold non-standard residues; d marks the D form. Peptide text beside a SMILES is read from it. ξ: configuration not given here. ξAbu = CCC(N)C(=O)O

Tested on: P388 leukemia ip, CD2F1 mice, survival T/C
Test: NCI In Vivo Anticancer Drug Screen. Data for tumor model P388 Leukemia (intraperitoneal) in CD2F1 (CDF1) mice
Conditions: endpoint: median survival time, higher = longer survival
How it was run: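 Mice carrying the transplanted tumor received test compound or vehicle. Survival was recorded in each group, and the value is the treated-group measurement divided by that of the vehicle-treated control group.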

[1] = dose: 100.0 mg/kg/injection, schedule: Q01DX009 (ip), vehicle: saline with Tween-80
[2] = dose: 50.0 mg/kg/injection, schedule: Q01DX005 (ip), vehicle: saline
[3] = dose: 100.0 mg/kg/injection, schedule: Q01DX005 (ip), vehicle: saline
[4] = dose: 200.0 mg/kg/injection, schedule: Q01DX005 (ip), vehicle: saline
[5] = dose: 50.0 mg/kg/injection, schedule: Q01DX009 (ip), vehicle: Klucel (hydroxypropylcellulose) (HPC)
[6] = dose: 100.0 mg/kg/injection, schedule: Q01DX009 (ip), vehicle: Klucel (hydroxypropylcellulose) (HPC)
[7] = dose: 50.0 mg/kg/injection, schedule: Q01DX005 (ip), vehicle: Klucel (hydroxypropylcellulose) (HPC)

## CC(C)CC(=O)CC(O)(C(F)(F)F)C(F)(F)F
[1]
  T/C: 109 % of control
dose: 200.0 mg/kg/injection, schedule: Q01DX009 (ip), vehicle: saline with Tween-80
  T/C: 113 % of control

## COC1=CC(=N/Br)/C=CC/1=N/Br
[2]
  T/C: 98 % of control and 103 % of control
[3]
  T/C: 99 % of control and 100 % of control and 105 % of control
[4]
  T/C: 99 % of control and 107 % of control and 120 % of control

## CC(=O)/C=C/c1ccc([N+](=O)[O-])cc1
[5]
  T/C: 100 % of control
[6]
  T/C: 90 % of control
dose: 100.0 mg/kg/injection, schedule: Q04DX003 (ip), vehicle: Klucel (hydroxypropylcellulose) (HPC)
  T/C: 91 % of control
dose: 200.0 mg/kg/injection, schedule: Q01DX009 (ip), vehicle: Klucel (hydroxypropylcellulose) (HPC)
  T/C: 98 % of control
dose: 200.0 mg/kg/injection, schedule: Q04DX003 (ip), vehicle: Klucel (hydroxypropylcellulose) (HPC)
  T/C: 89 % of control
dose: 400.0 mg/kg/injection, schedule: Q04DX003 (ip), vehicle: Klucel (hydroxypropylcellulose) (HPC)
  T/C: 97 % of control

## CCCCCCCCCCCCCCCCCCCCC(C(=O)OCC)S(=O)(=O)O (stereo unspecified)
[5]
  T/C: 116 % of control
[6]
  T/C: 111 % of control

## CC(C)(C)OC(=O)NNS(=O)(=O)CCC(N)C(=O)O (stereo unspecified)
dose: 12.5 mg/kg/injection, schedule: Q01DX009 (ip), vehicle: other
  T/C: 106 % of control
dose: 25.0 mg/kg/injection, schedule: Q01DX009 (ip), vehicle: other
  T/C: 106 % of control
dose: 50.0 mg/kg/injection, schedule: Q01DX009 (ip), vehicle: other
  T/C: 97 % of control
dose: 100.0 mg/kg/injection, schedule: Q01DX009 (ip), vehicle: other
  T/C: 97 % of control
dose: 200.0 mg/kg/injection, schedule: Q01DX009 (ip), vehicle: other
  T/C: 100 % of control

## O=C1C2C[C@@H]3c4ccccc4N[C@@H]3N2C(=O)C2CCCN12 (stereo partly specified)
[7]
  T/C: 97 % of control
dose: 100.0 mg/kg/injection, schedule: Q01DX005 (ip), vehicle: Klucel (hydroxypropylcellulose) (HPC)
  T/C: 102 % of control
dose: 200.0 mg/kg/injection, schedule: Q01DX005 (ip), vehicle: Klucel (hydroxypropylcellulose) (HPC)
  T/C: 94 % of control

## CCC(N)C(=O)NCC(=O)NCC(=O)O (stereo not drawn) (H-[ξAbu]-Gly-Gly-OH)
[2]
  T/C: 103 % of control
[3]
  T/C: 103 % of control
[4]
  T/C: 103 % of control

## CCCCN=Cc1ccccc1O.CCCCN=Cc1ccccc1O.[Cu]
[7]
  T/C: 99 % of control

## CSC(=S)n1nc(-c2ccccc2)c(N=Nc2cccc(C)c2C)c1C
dose: 100.0 mg/kg/injection, schedule: Q04DX002 (ip), vehicle: saline with Tween-80
  T/C: 88 % of control
dose: 200.0 mg/kg/injection, schedule: Q04DX002 (ip), vehicle: saline with Tween-80
  T/C: 90 % of control
dose: 400.0 mg/kg/injection, schedule: Q04DX002 (ip), vehicle: saline with Tween-80
  T/C: 112 % of control

## O=C(Nc1ccccc1)C1(Cl)CCCCC1
dose: 100.0 mg/kg/injection, schedule: Q01DX001 (ip), vehicle: Klucel (hydroxypropylcellulose) (HPC)
  T/C: 90 % of control
dose: 200.0 mg/kg/injection, schedule: Q01DX001 (ip), vehicle: Klucel (hydroxypropylcellulose) (HPC)
  T/C: 92 % of control
dose: 400.0 mg/kg/injection, schedule: Q01DX001 (ip), vehicle: Klucel (hydroxypropylcellulose) (HPC)
  T/C: 91 % of control

## N#Cc1ccccc1N=Nc1ccccc1
dose: 50.0 mg/kg/injection, schedule: Q01DX009 (ip), vehicle: saline + alcohol
  T/C: 94 % of control
dose: 100.0 mg/kg/injection, schedule: Q01DX009 (ip), vehicle: saline + alcohol
  T/C: 95 % of control
dose: 200.0 mg/kg/injection, schedule: Q01DX009 (ip), vehicle: saline + alcohol
  T/C: 97 % of control

## CCOC(=O)c1[nH]c(=S)n(-c2ccccc2)c1C(=O)OCC
dose: 6.25 mg/kg/injection, schedule: Q01DX009 (ip), vehicle: saline with Tween-80
  T/C: 101 % of control
dose: 12.5 mg/kg/injection, schedule: Q01DX009 (ip), vehicle: saline with Tween-80
  T/C: 110 % of control
dose: 25.0 mg/kg/injection, schedule: Q01DX009 (ip), vehicle: saline with Tween-80
  T/C: 111 % of control
dose: 50.0 mg/kg/injection, schedule: Q01DX009 (ip), vehicle: saline with Tween-80
  T/C: 101 % of control

## O=c1n2ccccc2nc2nc3ccccc3n12
dose: 60.0 mg/kg/injection, schedule: Q01DX005 (ip), vehicle: saline with Tween-80
  T/C: 86 % of control
dose: 120.0 mg/kg/injection, schedule: Q01DX005 (ip), vehicle: saline with Tween-80
  T/C: 86 % of control

## CC1CN1P(=S)(N1CCCC1)N1CC1C (stereo unspecified)
dose: 64.0 mg/kg/injection, schedule: Q04DX003 (ip), vehicle: saline with Tween-80
  T/C: 116 % of control
dose: 66.0 mg/kg/injection, schedule: Q01DX009 (ip), vehicle: saline with Tween-80
  T/C: 150 % of control
[1]
  T/C: 150 % of control
dose: 150.0 mg/kg/injection, schedule: Q01DX009 (ip), vehicle: saline with Tween-80
  T/C: 86 % of control
dose: 200.0 mg/kg/injection, schedule: Q04DX003 (ip), vehicle: saline with Tween-80
  T/C: 159 % of control
dose: 256.0 mg/kg/injection, schedule: Q04DX003 (ip), vehicle: saline with Tween-80
  T/C: 100 % of control
